The record followed here is ChEMBL document CHEMBL1140143, “Combining ligand-based pharmacophore modeling, quantitative structure-activity relationship analysis and in silico screening for the discovery of new potent hormone sensitive lipase inhibitors” (J Med Chem, 2008).

Molecules are shown by their SMILES. pIC50: −log10 of the molar value. A value given as a limit tells only on which side of the number the result lay.

In the experiment the target is T1, Hormone-sensitive lipase (Rattus norvegicus, UniProt P15304).
T1 sequence (P15304 whole entry): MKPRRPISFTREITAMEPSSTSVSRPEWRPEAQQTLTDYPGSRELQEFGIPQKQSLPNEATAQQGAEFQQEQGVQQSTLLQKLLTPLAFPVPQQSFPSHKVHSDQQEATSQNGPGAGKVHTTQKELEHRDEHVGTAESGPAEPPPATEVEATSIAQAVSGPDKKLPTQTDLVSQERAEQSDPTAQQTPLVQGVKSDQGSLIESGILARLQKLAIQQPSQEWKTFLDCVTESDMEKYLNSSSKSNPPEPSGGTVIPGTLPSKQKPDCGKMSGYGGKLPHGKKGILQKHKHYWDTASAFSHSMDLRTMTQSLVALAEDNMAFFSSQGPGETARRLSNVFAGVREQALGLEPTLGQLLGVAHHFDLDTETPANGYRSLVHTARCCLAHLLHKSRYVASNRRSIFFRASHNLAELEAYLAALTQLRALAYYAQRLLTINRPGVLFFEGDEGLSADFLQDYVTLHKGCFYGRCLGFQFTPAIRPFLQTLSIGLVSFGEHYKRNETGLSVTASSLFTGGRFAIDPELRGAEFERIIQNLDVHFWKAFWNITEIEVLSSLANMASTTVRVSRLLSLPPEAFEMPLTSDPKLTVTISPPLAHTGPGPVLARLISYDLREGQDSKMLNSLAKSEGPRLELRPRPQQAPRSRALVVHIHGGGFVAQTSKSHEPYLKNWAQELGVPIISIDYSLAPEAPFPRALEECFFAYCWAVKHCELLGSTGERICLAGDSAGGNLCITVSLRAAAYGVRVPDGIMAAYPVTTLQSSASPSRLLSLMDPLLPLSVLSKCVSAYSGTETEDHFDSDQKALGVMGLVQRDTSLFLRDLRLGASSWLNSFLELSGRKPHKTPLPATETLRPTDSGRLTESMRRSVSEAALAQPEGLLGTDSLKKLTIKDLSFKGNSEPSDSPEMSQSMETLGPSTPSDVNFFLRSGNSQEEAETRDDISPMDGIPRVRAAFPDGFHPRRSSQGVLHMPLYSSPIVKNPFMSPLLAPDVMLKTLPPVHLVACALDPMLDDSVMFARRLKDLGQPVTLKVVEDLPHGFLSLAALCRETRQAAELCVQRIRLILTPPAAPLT
Put plainly: Inhibition of HSL in Wistar rat isolated fat cells by spectrophotometric assay.
In general, pIC50 refers to the negative decadic logarithm of the IC50, by convention in mol/L. `Cc1c(C2CCS(=O)(=O)CC2)c(=O)on1C(=O)N1CCCCC1` showed a pIC50 of 7.26. For `Cc1c(C(C)C)c(=O)on1C(=O)N(C)c1ccccc1` the value was 8.15; for `Cc1c(C(C)C)c(=O)on1C(=O)N(C)Cc1cccs1`, 8.70; for `CSc1nc(-c2ccc(-c3ccccc3)cc2)nn1C(=O)N(C)C`, 7.58. The result for `Cc1c(C(C)C)c(=O)on1C(=O)N1CCCC1` reads 7.82. With `Cc1ccc(-c2nc(SCc3ccccc3)[nH]c(=O)c2CCO)cc1`, the pIC50 is 5.53. The result for `CSc1nc(-c2ccc(C)cc2)nn1C(=O)N(C)c1ccccc1` reads 8.75; that for `CCSc1nc(-c2ccc(OC)cc2)nn1C(=O)N(C)c1ccccc1`, 8.28; that for `Cc1c(C(C)C)c(=O)on1C(=O)N1CCSCC1`, 8.10. For `Cc1c(C(C)C)c(=O)on1C(=O)N1CCC(c2ccccc2)CC1` the value was 7.92. The result for `CCOCCc1c(C)n(C(=O)N2CCC(C)CC2)oc1=O` reads 8.52; that for `Cc1c(C(C)C)c(=O)on1C(=O)N1CCC(O)(c2ccccc2)CC1`, less than 6.00. As to `Cc1c(Cc2ccccc2)c(=O)on1C(=O)N1CCCCC1`, the negative logarithm of the IC50 (pIC50) is 8.30. The result for `Cc1c(C(C)C)c(=O)on1C(=O)N1CCCCCC1` reads 7.21; that for `CSc1nc(-c2ccc(C)cc2)nn1C(=O)N1CCOCC1`, 7.15.

`Cc1c(C(C)C)c(=O)on1C(=O)N1CCOCC1` gave a negative-log IC50 (pIC50) of 7.28.

With `Cc1c(-c2ccccc2)c(=O)on1C(=O)N1CCCCC1`, the negative logarithm of the IC50 (pIC50) is 7.85.

The compound `Cc1c(C(C)C)c(=O)on1C(=O)N1CCC(O)CC1` gave a negative logarithm of the IC50 (pIC50) of 6.78. The result for `CCOC(=O)C1CCN(C(=O)n2oc(=O)c(C(C)C)c2C)CC1` reads 8.22; that for `Cc1c(C(C)C)c(=O)on1C(=O)N(C)CCc1ccccc1`, 6.74; that for `COCCc1c(C)n(C(=O)N2CCC(c3cccc(F)c3)CC2)oc1=O`, 7.70. For `Cc1c(C(C)C)c(=O)on1C(=O)N(C)Cc1ccccc1F` the value was 8.40; for `Cc1c(C(C)C)c(=O)on1C(=O)N1CCC[C@@H](C)C1`, 7.70; for `Cc1c(Sc2ccc(Cl)cc2)c(=O)on1C(=O)N1CCCCC1`, 8.22.

Consider `CN(C(=O)n1nc(-c2ccc(Cl)cc2)nc1SCC1CC1)c1ccccc1`, for which the negative-log IC50 (pIC50) was 8.96. For `CSc1nc(-c2ccc(Cl)cc2)nn1C(=O)N(C)C` the value was 9.45; for `Cc1c(C(C)C)c(=O)on1C(=O)N1CCCCC1C` (stereo not given), 7.03.

`O=C(N1CCCCC1)n1nc(-c2ccc(Cl)cc2)nc1SC1CCCCC1`: the pIC50 was 6.05. For `Cc1c(C2CCCCC2)c(=O)on1C(=O)N1CCC(C)CC1` the value was 8.40; for `Cc1c(C(C)C)c(=O)on1C(=O)N1CCN(c2ncccn2)CC1`, 7.17; for `CCCCCCSc1nc(-c2ccc(C)cc2)nn1C(=O)N(C)C`, 6.05.

For `Cc1c(C(C)C)c(=O)on1C(=O)N1CC=CC1`, the negative logarithm of the IC50 (pIC50) is 7.14. For `O=C(N1CCCCC1)n1nc(-c2ccc(Cl)cc2)nc1SCC(F)(F)F` the value was 8.15.

`Cc1c(CC(C)C)c(=O)on1C(=O)N1CCC(C)CC1` showed a negative-log IC50 (pIC50) of 8.52. For `Cc1c(C(C)C)c(=O)on1C(=O)N(C)Cc1ccccc1` the value was 8.30; for `Cc1c(C2CCSCC2)c(=O)on1C(=O)N1CCCCC1`, 7.96.

Compound `Cc1c(CCOc2ccccc2)c(=O)on1C(=O)N1CCCCC1` showed a negative-log IC50 (pIC50) of 8.40. The result for `CCOC(=O)C1CCCN(C(=O)n2oc(=O)c(C(C)C)c2C)C1` (stereo not given) reads 7.55; that for `Cc1c(C(C)C)c(=O)on1C(=O)N(C)Cc1ccc(F)cc1`, 6.95; that for `Cc1c(C(C)C)c(=O)on1C(=O)N1CCNCC1`, less than 6.00. For `Cc1c(C(C)C)c(=O)on1C(=O)NC(C)(C)C` the value was less than 6.00. Regarding `O=C(N1CCCCC1)n1nc(-c2ccc(Cl)cc2)nc1SCC1CC1`, the pIC50 is 8.45.

Compound `Cc1c(C(C)C)c(=O)on1C(=O)N1CCC(=O)CC1` had a pIC50 of 6.70. For `CCSc1nc(-c2ccc(OC)cc2)nn1C(=O)N1CCOCC1` the value was 6.80; for `Cc1c(C(C)C)c(=O)on1C(=O)N1CCC[C@H](C)C1`, 8.52; for `Cc1c(C(C)C)c(=O)on1C(=O)N1CCN(c2ccccc2Cl)CC1`, 7.52.

In the case of `Cc1c(C(C)C)c(=O)on1C(=O)N1CCCC(CO)C1` (stereo not given), the pIC50 is 6.74.

The compound `Cc1c(C(C)C)c(=O)on1C(=O)N1CCC(Cc2ccccc2)CC1` had a negative logarithm of the IC50 (pIC50) of 6.99.

For `Cc1ccc(CN(C)C(=O)n2oc(=O)c(C(C)C)c2C)cc1`, the pIC50 was 6.39.

`Cc1c(CC(C)C)c(=O)on1C(=O)N1CCC(c2ccccc2)CC1`: the pIC50 is 8.00. For `Cc1c(Sc2ccccc2)c(=O)on1C(=O)N1CCCCC1` the value was 8.22; for `Cc1nnc(C2CCN(C(=O)n3oc(=O)c(C(C)C)c3C)CC2)o1`, less than 6.00; for `CSc1nc(-c2ccc(C)cc2)nn1C(=O)N(C)C`, 9.28. As to `Cc1c(C2CCCCC2)c(=O)on1C(=O)N1CCCCC1`, the pIC50 was 7.96. The compound `Cc1c(C(C)C)c(=O)on1C(=O)N(C)C1CCCCC1` had a negative-log IC50 (pIC50) of 8.05. The compound `COc1ccc(-c2nc(SC)n(C(=O)N(C)C)n2)cc1` gave a negative-log IC50 (pIC50) of 7.80. In turn, `Cc1c(C(C)C)c(=O)on1C(=O)N(C)CC(N)=O` gave a pIC50 of less than 6.00.

`Cc1c(CC(C)C)c(=O)on1C(=O)N1CCCCC1` had a negative logarithm of the IC50 (pIC50) of 8.30.

Regarding `COCCc1c(C)n(C(=O)N2CCC(c3ccccc3)CC2)oc1=O`, the pIC50 was 7.96. `CSc1nc(-c2ccc(Cl)cc2)nn1C(=O)N1CCCCC1` gave a negative logarithm of the IC50 (pIC50) of 8.75.

Take `O=C(N1CCOCC1)n1nc(-c2ccc(Cl)cc2)nc1SCC(F)(F)F`: the pIC50 is 6.80. For `COCCc1c(C)n(C(=O)N2CCC(c3cccc(C)c3)CC2)oc1=O` the value was 7.64; for `Cc1c(C(C)C)c(=O)on1C(=O)N1CC(C)CCC1C` (stereo not given), 6.34; for `Cc1c(C(C)C)c(=O)on1C(=O)N1CCN(C)CC1`, 6.50. Regarding `Cc1c(C(C)C)c(=O)on1C(=O)NCC1CCCCC1`, the pIC50 is 7.14.

As to `Cc1c(C(C)C)c(=O)on1C(=O)N1CCC(c2ccc(C(C)(C)C)cc2)CC1`, the pIC50 was 6.32.

`Cc1c(C(C)C)c(=O)on1C(=O)N1CCc2ccccc21` gave a negative logarithm of the IC50 (pIC50) of less than 6.00. `CCCCCCSc1nc(-c2ccc(Cl)cc2)nn1C(=O)N(C)c1ccccc1` gave a negative logarithm of the IC50 (pIC50) of 8.15.

`Cc1c(C(C)C)c(=O)on1C(=O)N(C)CCC#N` had a pIC50 of less than 6.00.

`Cc1ccc(-c2nc(SCC(F)(F)F)n(C(=O)N(C)C)n2)cc1` had a pIC50 of 7.98. In turn, `CCCCCCSc1nc(-c2ccc(C)cc2)nn1C(=O)N(C)c1ccccc1` had a negative-log IC50 (pIC50) of 7.91.

In the case of `Cc1c(Cc2cc3ccccc3n2C)c(=O)on1C(=O)N1CCCCC1`, the negative logarithm of the IC50 (pIC50) is 7.77. For `Cc1c(C(C)C)c(=O)on1C(=O)N1CCN(c2ccccc2)CC1` the value was 8.22; for `CCCCCCSc1nc(-c2ccc(Cl)cc2)nn1C(=O)N1CCOCC1`, 6.05; for `CSc1nc(-c2ccc(Cl)cc2)nn1C(=O)N1CCOCC1`, 7.45. For `Cc1c(C(C)C)c(=O)on1C(=O)N(C)Cc1ccco1` the value was 8.40; for `Cc1c(C2CCCC2)c(=O)on1C(=O)N1CCC(c2ccccc2)CC1`, 7.62; for `Cc1c(C2CCSCC2)c(=O)on1C(=O)N1CCC(C)CC1`, 8.22. The result for `Cc1c(C(C)C)c(=O)on1C(=O)N1CCC(c2cccc(F)c2)CC1` reads 7.92; that for `Cc1c(C(C)C)c(=O)on1C(=O)N1CCC(c2ccc(C(F)(F)F)cc2)CC1`, 6.80. With `CSc1nc(-c2cccc3ccccc23)nn1C(=O)N(C)C`, the pIC50 was 7.45. For `Cc1c(C2CCCC2)c(=O)on1C(=O)N1CCCCC1` the value was 8.22; for `Cc1c(C(C)C)c(=O)on1C(=O)N1CCC(C)CC1`, 8.22. In the case of `CSc1nc(-c2ccc(Cl)cc2)nn1C(=O)N(C)c1ccccc1`, the pIC50 is 8.55.

Compound `Cc1ccc(C2CCN(C(=O)n3oc(=O)c(C(C)C)c3C)CC2)cc1` showed a pIC50 of 7.43. For `Cc1c(C(C)C)c(=O)on1C(=O)N1CCC(C(=O)c2ccccc2)CC1` the value was 6.60; for `Cc1c(C(C)C)c(=O)on1C(=O)N(C)c1ccccn1`, 6.62. For `Cc1c(C2CCOCC2)c(=O)on1C(=O)N1CCCCC1` the value was 7.15; for `CSc1nc(-c2ccc(OC(F)(F)F)cc2)nn1C(=O)N(C)c1ccccc1`, 8.36. For `CSc1nc(/C=C/c2ccccc2)nn1C(=O)N(C)C` the value was 6.05.
